Assay results from PubChem BioAssay (NCI).
Where “and” joins values, the source holds several entries; their conditions need not be identical. Equal values may be shown once.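 Exposure lasted 48 hours, with cells grown in 96-well plates and compounds tested at five concentrations. GI50 is the concentration that inhibits growth by half. TGI: total growth inhibition.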

Tested on: MDA-MB-468 breast
Experiment: DTP human tumour cell line panel, 48 h

`FC(F)(F)c1cccc(-c2nn3ncccc3c2-c2ccnc(Nc3ccc4c(c3)OCCO4)n2)c1` was tested, and the GI50 was 3.97 µM and the TGI was 17.9 µM.

For `O=C(Nc1ccccc1OC(=O)c1ccccc1)c1ccccc1`, the GI50 was 5.64 µM and the TGI was over 100 µM.

`Nc1n[nH]c2ccc([C@@H]3Nc4cc5c(cc4[C@H]4C6CCC(C6)[C@@H]34)C(=O)NC5)cc12` (some centres undefined) showed a GI50 of 0.323 µM and a TGI of over 100 µM.

`COc1cc(-c2nn(-c3cccc(NC(=O)CCN4CCN(Cc5ccccc5)CC4)c3)cc2-c2ccncc2)ccc1Cl` showed a GI50 of 0.433 µM and a TGI of 16.2 µM.

`C=CCc1cc(Nc2c3ccc(Cl)cc3nc3ccc(OC)cc23)cc(CN(CC)CC)c1O` was tested, and the GI50 was 0.546 µM and the TGI was 3.24 µM.

Work on `CC(C)C[C@H](NC(=O)CCn1ccc2ccccc2c1=O)B(O)O` yielded a GI50 of 1.38 µM and a TGI of 7.08 µM.

With `O=C(CSc1nnc(-c2ccc(Cl)cc2)n1-c1ccccc1)Nc1ccc(Cl)cc1` the GI50 was 2.83 µM and the TGI was 8.27 µM.

For `CCc1c(C)nc2sc3c(N)ncnc3c2c1C`, the GI50 was over 25 µM and the TGI was over 25 µM.

`COc1ccc(Nc2ccc([N+](=O)[O-])cc2[N+](=O)[O-])cc1CN(CCCl)CCCl` gave a GI50 of 1.99 µM and a TGI of 5.09 µM.

`COc1cc(/C=C/c2ccc3c(Br)cc(Br)c(O)c3n2)ccc1O` gave a GI50 of 1.38 µM and a TGI of 5.29 µM.

Work on `CCN1C(=O)N(CC)C2C1NN=c1s/c(=C\c3ccc(F)cc3)c(=O)n12` (centres undefined) yielded a GI50 of 0.168 µM and a TGI of over 100 µM.

For `N/C(=N\OC(=O)c1ccccc1)C(Cc1ccccc1)C(=O)NOC(=O)c1ccccc1` (centres undefined), the GI50 was 4.1 µM and the TGI was 17.5 µM.

Work on `COc1ccc2c(c1)C(=O)c1c-2c(OCCN(C)C)nc2ccccc12` yielded a GI50 of 2.76 µM and a TGI of 11.3 µM.

With `c1ccc(N=C2c3ccsc3C(=Nc3ccccc3)c3ccsc32)cc1` the GI50 was 1.78 µM and the TGI was 3.61 µM.

Work on `COc1ccc(/C=C(\C)[N+](=O)[O-])cc1OC` yielded a GI50 of 1.48 µM and a TGI of 3.05 µM.

In the case of `O=C(CN1N=C(c2ccc(F)cc2)CCC1=O)Nc1nc2ccccc2s1`, the GI50 is reported as 21.1 µM and the TGI is reported as 85.9 µM.

In the case of `COc1ccc(/C=C(/C)[N+](=O)[O-])cc1OC`, the GI50 is reported as 1.34 µM and 1.15 µM and the TGI is reported as 2.77 µM and 2.53 µM.
